{"source": "patent US4254109A", "about": "“1H-Benz[de]isoquinoline-2(3H)-acetic acid derivatives” (Ayerst, McKenna & Harrison Inc., priority 1979, dated 1981)", "key": {"aldose reductase [1]": {"target": "T1, aldose reductase (Bos taurus, UniProt P16116)", "T1 construct": "preparation of the enzyme from bovine lens; from tissue; host or cells: bovine lens", "assay": "in vitro aldose reductase inhibition (modified Hayman and Kinoshita procedure; enzyme from bovine lens)", "assay_type": "biochemical", "conditions": "read-out: Percent Inhibition at Different Molar Concentrations (in vitro); for inhibition at 10 µM: 10^-5 molar; for inhibition at 1 µM: 10^-6 molar; for inhibition at 0.1 µM: 10^-7 molar", "experimental": "In the present case the procedure of Hayman and Kinoshita is modified in that the final chromatography step is omitted in the preparation of the enzyme from bovine lens.\nThe following results were obtained when the compounds of this invention were evaluated in the above in vitro test (the results for 1,3-dioxo-1H-benz[de]isoquinoline-2(3H)-acetic acid, see U.S. Pat. No. 3,821,383 cited hereinbefore, also is included for comparative purposes): […]"}, "glucagon": {"tested_on": "glucagon", "conditions": "cited from earlier work"}, "insulin secretion": {"tested_on": "insulin secretion", "conditions": "cited from earlier work"}, "aldose reductase [2]": {"tested_on": "aldose reductase", "conditions": "cited from earlier work"}}, "data": [{"compound": "CCCCCCCCCCSc1ccc2c3c(cccc13)C(=O)N(CC(=O)O)C2=O", "note": "[Example 5, 1,3-Dioxo-6-(decylthio)-1H-benz[de]isoquinoline-2(3H)-acetic acid]", "values": [{"measurement": "inhibition at 10 µM", "setting": "aldose reductase [1]", "value": 60, "unit": "%"}, {"measurement": "inhibition at 1 µM", "setting": "aldose reductase [1]", "value": 33, "unit": "%"}, {"measurement": "inhibition at 0.1 µM", "setting": "aldose reductase [1]", "value": 26, "unit": "%"}]}, {"compound": "O=C(O)CN1C(=O)c2cccc3c(Sc4ccccc4C(=O)O)ccc(c23)C1=O", "note": "[Example 4, 1,3-Dioxo-6-[(2-carboxyphenyl)thio]-1H-benz[de]isoquinoline-2(3H)-acetic acid]", "values": [{"measurement": "inhibition at 10 µM", "setting": "aldose reductase [1]", "value": 91, "unit": "%"}, {"measurement": "inhibition at 1 µM", "setting": "aldose reductase [1]", "value": 61, "unit": "%"}, {"measurement": "inhibition at 0.1 µM", "setting": "aldose reductase [1]", "value": 17, "unit": "%"}]}, {"compound": "O=C(O)CN1C(=O)c2cccc3c(Cl)ccc(c23)C1=O", "note": "[Example 2, 6-Chloro-1,3-dioxo-1H-benz[de]isoquinoline-2(3H)-acetic acid]", "values": [{"measurement": "inhibition at 10 µM", "setting": "aldose reductase [1]", "value": 86, "unit": "%"}, {"measurement": "inhibition at 1 µM", "setting": "aldose reductase [1]", "value": 42, "unit": "%"}, {"measurement": "inhibition at 0.1 µM", "setting": "aldose reductase [1]", "value": 9, "unit": "%"}]}, {"compound": "O=C(O)CN1C(=O)c2cccc3c(C(=O)c4ccccc4)ccc(c23)C1=O", "note": "[Example 1, 6-Benzoyl-1,3-dioxo-1H-benz[de]isoquinoline-2(3H)-acetic acid]", "values": [{"measurement": "inhibition at 10 µM", "setting": "aldose reductase [1]", "value": 85, "unit": "%"}, {"measurement": "inhibition at 1 µM", "setting": "aldose reductase [1]", "value": 65, "unit": "%"}, {"measurement": "inhibition at 0.1 µM", "setting": "aldose reductase [1]", "value": 22, "unit": "%"}]}, {"compound": "O=C(O)CN1C(=O)c2cccc3c(Sc4ccccc4)ccc(c23)C1=O", "note": "[Example 3, 1,3-Dioxo-6-(phenylthio)-1H-benz[de]isoquinoline-2(3H)-acetic acid]", "values": [{"measurement": "inhibition at 10 µM", "setting": "aldose reductase [1]", "value": 92, "unit": "%"}, {"measurement": "inhibition at 1 µM", "setting": "aldose reductase [1]", "value": 71, "unit": "%"}, {"measurement": "inhibition at 0.1 µM", "setting": "aldose reductase [1]", "value": 22, "unit": "%"}]}, {"compound": "O=C(O)CN1C(=O)c2cccc3cccc(c23)C1=O", "note": "[1,3-Dioxo-1H-benz[de]isoquinoline-2(3H)-acetic acid, reference compound]", "values": [{"measurement": "secretion of excessive amounts of glucagon", "setting": "glucagon", "value": "prevents or decreases the secretion of excessive amounts of glucagon"}, {"measurement": "insulin secretion", "setting": "insulin secretion", "value": "stimulates insulin secretion"}, {"measurement": "inhibitor of aldose reductase", "setting": "aldose reductase [2]", "value": "effective inhibitor of aldose reductase"}, {"measurement": "inhibition at 10 µM", "setting": "aldose reductase [1]", "value": 74, "unit": "%"}, {"measurement": "inhibition at 1 µM", "setting": "aldose reductase [1]", "value": 32, "unit": "%"}, {"measurement": "inhibition at 0.1 µM", "setting": "aldose reductase [1]", "value": 5, "unit": "%"}]}]}
